According to patent publication US5637697A, “1,5-benzodiazepine derivatives and their use in medicine” (Glaxo SpA, priority 1992, dated 1997):

Experiments:
CCK-B receptor = biological target: T1, CCK-B receptor (Cavia porcellus, UniProt H0VZC5); assay: CCK-B receptor binding (guinea pig cortex assay); details: read-out: pKi CCK-B (converted)
T1 construct: CCK-B receptor (guinea pig cortex assay); from tissue; host or cells: guinea pig cortex
Experimental: The greater affinity of the compounds of the invention for the CCK-B receptor over the CCK-A receptor has also been established using the CCK, receptor binding assays described by G Dal Fornos et al., J. Pharmcol. Exp & Ther. 261, 1056-1063, 1992.
The binding affinity of the compounds of the invention for the CCK-A receptor (Pancreas Assay) and CCK-B receptor (guinea pig cortex assay) was determined using the procedure of G Dal Forno et al J. Pharmacol. Exp & Ther. 261 - 1056-1063. The pKi values determined with respresentative compounds of invention were as follows: […]

mice and rats [1] = assay: anxiolytic activity, oral, mice and rats; type: in vivo; details: given orally to mice and rats
Text: For example in mice in the black-white box test and in the rat social interaction model.
(§1) The compounds of the invention are essentially non-toxic and therapeutically useful doses.

mice and rats [2] = assay: oral tolerability / untoward effects in mice and rats; type: in vivo; details: given orally to mice and rats at doses at which the compound exhibits anxiolytic activity
Text: as §1

T1 sequence (H0VZC5 entry or part of it): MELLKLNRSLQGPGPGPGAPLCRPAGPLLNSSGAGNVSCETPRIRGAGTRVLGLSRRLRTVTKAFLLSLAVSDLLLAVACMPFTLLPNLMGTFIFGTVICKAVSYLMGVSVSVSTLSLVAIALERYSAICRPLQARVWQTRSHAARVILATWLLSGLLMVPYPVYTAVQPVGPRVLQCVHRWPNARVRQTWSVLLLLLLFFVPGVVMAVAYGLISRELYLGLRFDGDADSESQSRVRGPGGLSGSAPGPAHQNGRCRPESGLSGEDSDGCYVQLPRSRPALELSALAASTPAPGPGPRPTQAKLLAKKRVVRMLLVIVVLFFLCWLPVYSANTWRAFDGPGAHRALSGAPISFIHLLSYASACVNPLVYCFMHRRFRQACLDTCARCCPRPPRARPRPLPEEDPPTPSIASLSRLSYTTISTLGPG

| SMILES | Ki (CCK-B receptor) [nM] | anxiolytic activity (mice and rats [1]) | untoward effects (mice and rats [2]) |
| --- | --- | --- | --- |
| O=C(Nc1ccccc1)NC1C(=O)N(CC2CC3C=CC2C3)c2ccccc2N(c2ccccc2)C1=O (stereo not drawn) [Example 31, N-[1-(Bicyclo[2.2.1]-5-heptene-2-ylmethyl)-2,4-dioxo-5-phenyl-2,3,4,5-tetrahydro-1H-1,5-benzodiazepin-3-yl]-N'-phenylurea] | 1.2 |  |  |
| O=C(Nc1ccccc1)NC1C(=O)N(CC23CC4CC(CC(C4)C2)C3)c2ccccc2N(c2ccccc2)C1=O (single isomer, unassigned; (+)) [Example 45, (+)-N-[1-(Adamantanmethyl)-2,4-dioxo-5-phenyl-2,3,4,5-tetrahydro-1H-1,5-benzodiazepin-3-yl]-N'-phenylurea] |  | exhibits anxiolytic activity | no untoward effects were obserbved |
